Experiments:
[1] = Rat in vivo PK (plasma clearance) in SAR tables; details: read-out: Rat CLp
[2] = Rat brain to plasma ratio (Kp, Kp,uu); type: in vivo; details: male, Sprague Dawley, intravenous, 0.2 mg/kg; for Kp at 15 min: brain and plasma, rat brain:plasma; for Kp uu at 15 min: brain and plasma (unbound), rat unbound brain:unbound plasma
Method: Determination of brain to plasma ratio:
All animal study procedures were approved by the Institutional Animal Care and Use Committee and were conducted in accordance with the National Institutes of Health regulations of animal care covered in Principles of Laboratory Animal Care (National Institutes of Health). All rats were fasted overnight prior to testing.
For determination of the brain over plasma ratio (Kp), compounds were formulated in 8% ethanol, 32% PEG400 and 60% DMSO (v/v/v) and administered as a single 0.2 mg/kg IV dose (1 mL/kg) to male, Sprague Dawley rats (n = 1) via injection into a surgically-implanted jugular vein catheter. At 15 min post dosing, blood sample was collected into chilled, K2EDTA anticoagulant-fortified tube and immediately placed on wet ice. The blood sample was then centrifuged (1700 rcf, 5 minutes, 4 °C) to obtain plasma sample. At the same post-administration time point, whole brain sample was obtained by rapid dissection, rinsed with PBS, and immediately frozen in individual tissue collection box (dry ice). All brain and plasma samples were stored at -80 °C until […]
Sample Analysis: Concentrations in plasma and brain homogenates were quantified by liquid chromatography tandem mass spectrometry (LC-MS/MS). Whole brains were homogenized in 3 mL of 70:30 IPA:water in a mini bead beater for 3 min, and centrifuged at 3,500 g for 5 min. 5 uL of the supernatant was diluted in 15 uL of blank plasma for quantification of the analytes. Plasma samples were centrifuged at 3,500 g for 5 min. A standard curve was generated by diluting the analytes DMSO stocks with blank plasma to obtain a final concentration of 10,000 ng/ml followed by a serial dilution down to 0.5 ng/ml. Quality controls were generated by a serial dilution of the 5,000 ng/ml standard curve solution in blank plasma to obtain 3 concentrations of 500, 50, and 5 ng/ml. 20 uL of brain diluted in plasma, plasma, blank plasma, standard curve and QC samples were loaded in a V-bottom 96-well plate. 120 uL of acetonitrile containing 0.05 uM carbamazepine (internal standard) was added to each well and the plate was centrifuged at 3,500 g for 5 min. 60 uL of the supernatant of each well (protein free) was transferred to a new 96-well plate containing 60 uL of water. The plates were sealed for analysis by LC-MS/MS.
Plasma and brain tissue samples originating from in vivo studies were analyzed by electrospray ionization using an AB Sciex Q-TRAP 5500 (Foster City, CA) that was coupled to a Shimadzu LC-20AD pump (Columbia, MD) and a Leap Technologies CTC PAL auto-sampler (Carrboro, NC). Analytes were separated by gradient elution using a C18 column (3 x 50 mm, 3 mm; Fortis Technologies Ltd, Cheshire, UK) that was thermostated at 40 °C. HPLC mobile phase A was 0.1% formic acid in water (pH unadjusted); mobile phase B was 0.1% formic acid in acetonitrile (pH […]
min, with an isocratic hold for 0.5 min, before transitioning to 10% B over 0.05 min. The column was re-equilibrated (1 min) before the next sample injection. The total run time was 2.55 min, and the HPLC flow rate was 0.5 ml/min. The source temperature was set at 500 °C, and mass spectral analyses were performed using a Turbo-Ion spray source in positive ionization mode (5.0-kV spray voltage) and using multiple-reaction monitoring of transitions specific for the analytes. All data were analyzed using AB Sciex Analyst 1.5.1 software.
Brain plasma concentration ratio (Kp) was calculated by dividing brain concentration by plasma concentration for each animal. Unbound brain to unbound plasma concentration ratio (Kp,uu) is calculated using the following formula: Kp,uu = (Brain ng/g x brain fu)/(plasma ng/ml x plasma fu).
In-vitro determination of blood-brain barrier penetration potential
Blood-brain barrier penetration was determined using MDR1-MDCK cell monolayers by Absorption Systems, following their protocol. In short, compounds were incubated at […] final concentration on one side of the cell monolayer for 2 hours. […]

[3] = Plasma protein binding, rat; type: in vitro ADME; details: bound; for fraction unbound at 6 h, 5 µM: rat, plasma, pH 7.4, rat plasma, read-out: PPB rat (converted)
Method: Plasma protein binding and Brain homogenate binding: Determination of fraction unbound (f u) in plasma was conducted in vitro via equilibrium dialysis using HTDialysis (HTD) membrane plates. The top half of the plate was filled with 100 uL of Dubelco’s Phosphate Buffered Saline, pH 7.4 (DPBS). Compounds were diluted into plasma from each species (5 µM final concentration), which was aliquoted in triplicate to the ‘bottom half’ of the prepared HTD plate wells. The HTD plate was sealed and incubated for 6 hours at 37 °C. Following incubation, each well (both top and bottom halves) were transferred (20 µL) to the corresponding wells of a 96-shallow-well (V-bottom) plate. The daughter plates were then matrix-matched (DPBS side wells received equal volume of plasma, and plasma side wells received equal volume of DPBS), and extraction solution (120 µL; acetonitrile containing 50 nM carbamazepine as IS) was added to all wells of both daughter plates to precipitate protein and extract test article. The plates were then sealed and centrifuged (3500 rcf) for 10 minutes at ambient temperature. Supernatant (60 µL) from each well of the daughter plates was then transferred to the corresponding wells of new daughter plates (96-shallow-well, V bottom) containing water (Milli-Q, 60 µL/well), and the plates were sealed in preparation for LC-MS/MS analysis (see LC-MS/MS analysis method below).
The unbound fraction (f u) was calculated following the equation below, and mean values for each species were calculated from 3 replicates. […]
Fraction unbound for both plasma and brain samples was determined using Equation 4.
Equation 4 Determination of fraction unbound in plasma. […]

Row | SMILES | clearance [1] [mL/min/kg] | Kp at 15 min [2] | fraction unbound at 6 h, 5 µM [3] | Kp uu at 15 min [2] | PPB rat ([3]; rat plasma) [%]
1 | Cc1cc(C#Cc2ccccc2)cnc1NC(=O)c1cc(OC[C@@H]2COCCO2)ccc1Cl [Compound 7, (S)-5-((1,4-Dioxan-2-yl)methoxy)-2-chloro-N-(3-methyl-5-(phenylethynyl)pyridin-2-yl)benzamide] | 9.43 | 0.86 |  |  | 
2 | CC(=O)N1CCC(n2ncc(Cl)c2C(=O)Nc2ncc(C#Cc3ccccc3)cc2C)CC1 [Compound 10, 1-(1-Acetylpiperidin-4-yl)-4-chloro-N-(3-methyl-5-(phenylethynyl)pyridin-2-yl)-1H-pyrazole-5-carboxamide] | 27.7 | 2.7 | 0.013 | 1 | 
3 | CC(=O)N1CC[C@@H](n2ncc(Cl)c2C(=O)Nc2ncc(C#Cc3ccc(F)cc3)cc2C)[C@H](F)C1 [Compound 11, 1-((3R,4R)-1-Acetyl-3-fluoropiperidin-4-yl)-4-chloro-N-(5-((4-fluorophenyl)ethynyl)-3-methylpyridin-2-yl)-1H-pyrazole-5-carboxamide] |  | 1.5 | 0.083 | 0.1 | 
4 | Cc1cc(C#Cc2ccccc2)cnc1NC(=O)c1c(Cl)cnn1[C@H]1CCOC1 [Compound 15a, (S)-4-Chloro-N-(3-methyl-5-(phenylethynyl)pyridin-2-yl)-1-(tetrahydrofuran-3-yl)-1H-pyrazole-5-carboxamide] | 8.9 | 2.8 | ~0.02 |  | 98.1

Source: publication PMC12621189, “Optimization of Selective and CNS Penetrant Alkyne-Based TREK Inhibitors: The Discovery and Characterization of ONO-9517601 (VU6022856) and ONO-7927846 (VU6024391)” (Journal of Medicinal Chemistry, 2025)
